Target: T1, Human M4 (Homo sapiens, UniProt P08173)
T1 construct: Human or rat M4 cDNA, along with the chimeric G protein Gq,5, were transfected into Chinese hamster ovary (CHO-K1) cells; expressed in transfected cells; host or cells: CHO-K1 (M4/Gqi5/CHO)
T1 sequence (P08173 1-479): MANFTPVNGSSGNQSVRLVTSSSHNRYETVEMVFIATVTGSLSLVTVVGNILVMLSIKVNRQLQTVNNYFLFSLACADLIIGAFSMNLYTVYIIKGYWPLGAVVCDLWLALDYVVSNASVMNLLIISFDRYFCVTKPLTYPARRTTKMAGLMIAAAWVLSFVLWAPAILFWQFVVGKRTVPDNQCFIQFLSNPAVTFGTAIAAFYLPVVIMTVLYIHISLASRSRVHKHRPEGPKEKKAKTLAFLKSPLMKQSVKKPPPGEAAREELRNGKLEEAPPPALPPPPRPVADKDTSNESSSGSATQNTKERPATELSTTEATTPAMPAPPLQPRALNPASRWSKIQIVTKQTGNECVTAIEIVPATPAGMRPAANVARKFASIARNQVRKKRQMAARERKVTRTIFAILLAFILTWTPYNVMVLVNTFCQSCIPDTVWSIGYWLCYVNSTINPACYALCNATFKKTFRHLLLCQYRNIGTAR
Assay: mAChR M4 cell-based functional assay (calcium flux, decrease of EC80 acetylcholine response)
Details: for Human M4 Emin: % ACh maximum at 30 μM; for IC50: CHO-K1 cells with human M4 and Gqi5, EC80 acetylcholine
In short: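 CHO-K1 cells stably co-expressing M4 with chimeric Gqi5, loaded with Fluo-4 AM for 50 min at 37 °C; compounds added as 10-point 1:3 curves, then acetylcholine at EC20 (143 s) and EC80 (268 s). Calcium read by FDSS fluorescence ratio; IC50 from four-parameter fit of decrease in EC80 acetylcholine response.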

Human M4 Emin [%] | IC50 [nM] | SMILES
4 | 21.1 | Fc1cc(F)c(F)c(-c2ccc(N[C@H]3C[C@@H]4CN(Cc5ccccn5)C[C@@H]4C3)nn2)c1 [Compound 2, (3aR,5s,6aS)-2-(pyridin-2-ylmethyl)-N-(6-(2,3,5-trifluorophenyl)pyridazin-3-yl)octahydrocyclopenta[c]pyrrol-5-amine]
4 | 10.5 | Fc1cc(F)c(F)c(-c2ccc(N[C@H]3C[C@@H]4CN(CC5CCOCC5)C[C@@H]4C3)nn2)c1 [Compound 1, (3aR,5s,6aS)-2-((tetrahydro-2H-pyran-4-yl)methyl)-N-(6-(2,3,5-trifluorophenyl)pyridazin-3-yl)octahydrocyclopenta[c]pyrrol-5-amine]

— patent US20230150986A1, “ANTAGONISTS OF THE MUSCARINIC ACETYLCHOLINE RECEPTOR M4” (Vanderbilt University, priority 2019, published 2023)
